Earlier results, collected in patent US20230143731A1, “NANOMATERIALS FOR TARGETED TREATMENT OF PULMONARY TISSUE” (The University of North Carolina at Chapel Hill, priority 2020, published 2023).

System: ACE
Settings: with and without the C-terminal serine

Substance	ACE inhibition [%]
TPTQQ [TPTQQ peptide]	26
TPTQQS	73
